# Tests used:
# HDAC1 = HDAC1 (Homo sapiens (Human), UniProt Q13547); experiment: HDAC enzyme activity inhibition (in vitro), HDAC1 Fluorimetric Drug Discovery Assay Kit; format: biochemical; conditions: samples at 100, 1000 and 10000 nM; 37° C. 60 minutes; fluorescence Ex 390, Em 460
# HDAC6 human recombinant = HDAC6 human recombinant (Homo sapiens (Human), UniProt Q9UBN7); experiment: HDAC enzyme activity inhibition (in vitro), HDAC6 assay; format: biochemical; conditions: samples at 0.1, 1, 10, 100 and 1000 nM; 37° C. 60 minutes; fluorescence Ex 390, Em 460
# Chain of HDAC6 human recombinant (Q9UBN7 whole entry): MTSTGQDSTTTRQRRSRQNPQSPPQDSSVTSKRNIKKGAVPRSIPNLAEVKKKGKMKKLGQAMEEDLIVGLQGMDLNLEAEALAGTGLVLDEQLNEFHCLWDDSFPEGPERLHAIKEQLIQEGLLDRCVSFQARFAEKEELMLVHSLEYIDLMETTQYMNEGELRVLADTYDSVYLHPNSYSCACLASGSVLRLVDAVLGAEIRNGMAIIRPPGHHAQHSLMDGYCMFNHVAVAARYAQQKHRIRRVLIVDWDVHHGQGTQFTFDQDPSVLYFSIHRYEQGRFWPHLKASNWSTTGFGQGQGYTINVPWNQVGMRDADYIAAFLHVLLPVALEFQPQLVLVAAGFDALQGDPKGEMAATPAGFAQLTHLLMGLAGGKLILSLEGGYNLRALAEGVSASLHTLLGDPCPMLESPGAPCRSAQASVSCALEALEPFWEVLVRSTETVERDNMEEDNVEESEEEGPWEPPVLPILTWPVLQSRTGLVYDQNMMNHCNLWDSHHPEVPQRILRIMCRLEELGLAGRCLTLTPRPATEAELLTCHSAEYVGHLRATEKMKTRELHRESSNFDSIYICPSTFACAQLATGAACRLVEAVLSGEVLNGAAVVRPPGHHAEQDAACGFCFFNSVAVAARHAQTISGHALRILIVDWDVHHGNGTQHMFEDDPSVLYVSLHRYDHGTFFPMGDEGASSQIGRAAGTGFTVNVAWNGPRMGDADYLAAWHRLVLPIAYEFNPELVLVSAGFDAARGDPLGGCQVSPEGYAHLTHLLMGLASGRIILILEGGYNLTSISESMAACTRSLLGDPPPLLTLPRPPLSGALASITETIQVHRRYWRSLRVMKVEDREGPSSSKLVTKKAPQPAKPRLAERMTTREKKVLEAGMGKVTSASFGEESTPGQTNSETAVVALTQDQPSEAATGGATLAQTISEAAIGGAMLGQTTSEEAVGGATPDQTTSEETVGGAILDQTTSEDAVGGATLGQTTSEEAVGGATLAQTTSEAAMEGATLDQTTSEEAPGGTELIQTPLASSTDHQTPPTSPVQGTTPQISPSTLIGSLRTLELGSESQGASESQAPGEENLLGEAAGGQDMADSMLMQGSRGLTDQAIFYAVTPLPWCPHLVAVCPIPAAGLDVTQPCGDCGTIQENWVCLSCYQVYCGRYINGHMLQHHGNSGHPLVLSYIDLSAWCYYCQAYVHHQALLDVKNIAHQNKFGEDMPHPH
# Chain of HDAC1 (Q13547 whole entry): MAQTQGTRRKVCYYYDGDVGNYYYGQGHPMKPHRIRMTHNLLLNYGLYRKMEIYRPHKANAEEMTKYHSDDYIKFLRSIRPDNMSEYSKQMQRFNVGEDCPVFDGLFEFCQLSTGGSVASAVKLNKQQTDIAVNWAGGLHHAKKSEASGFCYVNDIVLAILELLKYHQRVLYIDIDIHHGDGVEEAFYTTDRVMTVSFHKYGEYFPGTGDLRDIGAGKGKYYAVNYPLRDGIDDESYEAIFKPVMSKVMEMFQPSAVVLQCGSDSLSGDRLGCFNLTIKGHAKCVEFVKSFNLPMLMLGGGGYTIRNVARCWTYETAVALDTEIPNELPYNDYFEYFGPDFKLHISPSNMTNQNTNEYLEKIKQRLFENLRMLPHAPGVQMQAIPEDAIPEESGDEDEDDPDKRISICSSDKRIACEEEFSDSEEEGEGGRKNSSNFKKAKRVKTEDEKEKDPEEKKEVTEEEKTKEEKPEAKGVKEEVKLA
Compound,IC50 (HDAC1) [nM],IC50 (HDAC6 human recombinant) [nM]
"CC(C)N1CC=C(c2ccc3c(=O)n(Cc4ccc(-c5nnc(C(F)F)o5)cn4)c(=O)n(C)c3c2)CC1 [Compound 124, 3-((5-(5-(difluoromethyl)-1,3,4-oxadiazole-2-yl)pyridine-2-yl)methyl)-7-(1-isopropyl-1,2,3,6-tetrahydropyridine-4-yl)-1-methylquinazoline-2,4(1H,3H)-dione]",> 10000,38
"CC1(C)C(=O)N(Cc2ccc(-c3nnc(C(F)F)o3)cn2)C(=O)c2cc(C3=CCSCC3)ccc21 [Compound 121, 2-((5-(5-(difluoromethyl)-1,3,4-oxadiazole-2-yl)pyridine-2-yl)methyl)-7-(3,6-dihydro-2H-thiopyran-4-yl)-4,4-dimethylisoquinoline-1,3(2H,4H)-dione]",> 10000,36
"O=c1[nH]c2ccccc2c(=O)n1Cc1ccc(-c2nnc(C(F)F)o2)cn1 [Compound 14, 3-((5-(5-(difluoromethyl)-1,3,4-oxadiazole-2-yl)pyridine-2-yl)methyl)quinazoline-2,4(1H,3H)-dione]",> 10000,53
"O=C1Cc2ccccc2C(=O)N1Cc1ccc(-c2nnc(C(F)F)o2)cn1 [Compound 65, 2-((5-(5-(difluoromethyl)-1,3,4-oxadiazole-2-yl)pyridine-2-yl)methyl)isoquinoline-1,3(2H,4H)-dione]",> 10000,133
"O=c1c2ccccc2n(CCN2CCCCC2)c(=O)n1Cc1ccc(-c2nnc(C(F)F)o2)cc1 [Compound 11, 3-(4-(5-(difluoromethyl)-1,3,4-oxadiazole-2-yl)benzyl)-1-(2-(piperidine-1-yl)ethyl)quinazoline-2,4(1H,3H)-dione]",> 10000,1020
"CCC(F)(F)CN1CCN(c2ccc3c(c2)C(C)(C)C(=O)N(Cc2ccc(-c4nnc(C(F)F)o4)cn2)C3=O)CC1 [Compound 139, 6-(4-(2,2-difluorobutyl)piperazine-1-yl)-2-((5-(5-(difluoromethyl)-1,3,4-oxadiazole-2-yl)pyridine-2-yl)methyl)-4,4-dimethylisoquinoline-1,3(2H,4H)-dione]",> 10000,683
"CCN1CCC(c2ccc3c(c2)C(C)(C)C(=O)N(Cc2ncc(-c4nnc(C(F)F)o4)cn2)C3=O)CC1 [Compound 156, 2-((5-(5-(difluoromethyl)-1,3,4-oxadiazole-2-yl)pyrimidine-2-yl)methyl)-6-(1-ethylpiperidine-4-yl)-4,4-dimethylisoquinoline-1,3(2H,4H)-dione]",> 10000,56
"CCN1CCN(c2ccc3c(c2)C2(CCC2)C(=O)N(Cc2ccc(-c4nnc(C(F)F)o4)cn2)C3=O)CC1 [Compound 117, 2′-((5-(5-(difluoromethyl)-1,3,4-oxadiazole-2-yl)pyridine-2-yl)methyl)-6′-(4-ethylpiperazine-1-yl)-1′H-spiro[cyclobutane-1,4′-isoquinoline]-1′,3′(2′H)-dione]",> 10000,22
"CC1(C)C(=O)N(Cc2ccc(-c3nnc(C(F)F)o3)cn2)C(=O)c2ccc(-c3ccco3)cc21 [Compound 74, 2-((5-(5-(difluoromethyl)-1,3,4-oxadiazole-2-yl)pyridine-2-yl)methyl)-6-(furan-2-yl)-4,4-dimethylisoquinoline-1,3(2H,4H)-dione]",> 10000,49
"CC1(C)C(=O)N(Cc2ccc(-c3nnc(C(F)F)o3)cn2)C(=O)c2ccc(N3CCN(C4CCC(F)(F)CC4)CC3)cc21 [Compound 150, 6-(4-(4,4-difluorocyclohexyl)piperazine-1-yl)-2-((5-(5-(difluoromethyl)-1,3,4-oxadiazole-2-yl)pyridine-2-yl)methyl)-4,4-dimethylisoquinoline-1,3(2H,4H)-dione]",> 10000,51
"CC(=O)N1CCN(c2ccc3c(c2)C(C)(C)C(=O)N(Cc2ccc(-c4nnc(C(F)F)o4)cn2)C3=O)CC1 [Compound 34, 6-(4-acetylpiperazine-1-yl)-2-((5-(5-(difluoromethyl)-1,3,4-oxadiazole-2-yl)pyridine-2-yl)methyl)-4,4-dimethylisoquinoline-1,3(2H,4H)-dione]",> 10000,27
"CC1(C)C(=O)N(Cc2ccc(-c3nnc(C(F)F)o3)cn2)C(=O)c2cc(C3CCN(C(=O)CO)CC3)ccc21 [Compound 134, 2-((5-(5-(difluoromethyl)-1,3,4-oxadiazole-2-yl)pyridine-2-yl)methyl)-7-(1-(2-hydroxyacetyl)piperidine-4-yl)-4,4-dimethylisoquinoline-1,3(2H,4H)-dione]",> 10000,12
"CC1(C)C(=O)N(Cc2ccc(-c3nnc(C(F)F)o3)cn2)C(=O)c2cc(-c3cccc4[nH]ccc34)ccc21 [Compound 115, 2-((5-(5-(difluoromethyl)-1,3,4-oxadiazole-2-yl)pyridine-2-yl)methyl)-7-(1H-indole-4-yl)-4,4-dimethylisoquinoline-1,3(2H,4H)-dione]",> 10000,59
"COCCn1c(=O)c2ccccc2n(Cc2ccc(-c3nnc(C(F)F)o3)cn2)c1=O [Compound 76, 1-((5-(5-(difluoromethyl)-1,3,4-oxadiazole-2-yl)pyridine-2-yl)methyl)-3-(2-methoxyethyl)quinazoline-2,4(1H,3H)-dione]",> 10000,79
"CC1(C)C(=O)N(Cc2ccc(-c3nnc(C(F)F)o3)cn2)C(=O)c2cc(C3=CC[S+]([O-])CC3)ccc21 (stereo not shown) [Compound 123, 2-((5-(5-(difluoromethyl)-1,3,4-oxadiazole-2-yl)pyridine-2-yl)methyl)-4,4-dimethyl-7-(1-oxydo-3,6-dihydro-2H-thiopyran-4-yl)isoquinoline-1,3(2H,4H)-dione]",> 10000,17
"Cn1c(=O)n(Cc2ccc(-c3nnc(C(F)F)o3)cn2)c(=O)c2cc(-c3ccco3)ccc21 [Compound 87, 3-((5-(5-(difluoromethyl)-1,3,4-oxadiazole-2-yl)pyridine-2-yl)methyl)-6-(furan-2-yl)-1-methylquinazoline-2,4(1H,3H)-dione]",> 10000,23
"CC1(C)C(=O)N(Cc2ccc(-c3nnc(C(F)F)o3)cn2)C(=O)c2cc(-c3ccncc3)ccc21 [Compound 110, 2-((5-(5-(difluoromethyl)-1,3,4-oxadiazole-2-yl)pyridine-2-yl)methyl)-4,4-dimethyl-7-(pyridine-4-yl)isoquinoline-1,3(2H,4H)-dione]",> 10000,15
"CCN1CC=C(c2ccc3c(c2)C(C)(C)C(=O)N(Cc2ncc(-c4nnc(C(F)F)o4)cn2)C3=O)CC1 [Compound 155, 2-((5-(5-(difluoromethyl)-1,3,4-oxadiazole-2-yl)pyrimidine-2-yl)methyl)-6-(1-ethyl-1,2,3,6-tetrahydropyridine-4-yl)-4,4-dimethylisoquinoline-1,3(2H,4H)-dione]",> 10000,185
"CC1(C)C(=O)N(Cc2ccc(-c3nnc(C(F)F)o3)cn2)C(=O)c2ccc(N3CCOCC3)cc21 [Compound 24, 2-((5-(5-(difluoromethyl)-1,3,4-oxadiazole-2-yl)pyridine-2-yl)methyl)-4,4-dimethyl-6-morpholinoisoquinoline-1,3(2H,4H)-dione]",> 10000,21
"CC1(C)C(=O)N(Cc2ccc(-c3nnc(C(F)F)o3)cn2)C(=O)c2ccc(C3CCN(C4CC5(COC5)C4)CC3)cc21 [Compound 63, 6-(1-(2-oxaspiro[3.3]heptane-6-yl)piperidine-4-yl)-2-((5-(5-(difluoromethyl)-1,3,4-oxadiazole-2-yl)pyridine-2-yl)methyl)-4,4-dimethylisoquinoline-1,3(2H,4H)-dione]",> 10000,33
"COc1ccc(Cn2c(=O)n(Cc3ccc(-c4nnc(C(F)F)o4)cn3)c(=O)c3ccccc32)cc1 [Compound 13, 3-((5-(5-(difluoromethyl)-1,3,4-oxadiazole-2-yl)pyridine-2-yl)methyl)-1-(4-methoxybenzyl)quinazoline-2,4(1H,3H)-dione]",> 10000,225
"Cn1c(=O)n(Cc2ccc(-c3nnc(C(F)F)o3)cn2)c(=O)c2cc(Br)ccc21 [Compound 86, 6-bromo-3-((5-(5-(difluoromethyl)-1,3,4-oxadiazole-2-yl)pyridine-2-yl)methyl)-1-methylquinazoline-2,4(1H,3H)-dione]",> 10000,40
"CCN1CCC(c2ccc3c(c2)C(C)(C)C(=O)N(Cc2ccc(-c4nnc(C(F)F)o4)cn2)C3=O)CC1 [Compound 59, 2-((5-(5-(difluoromethyl)-1,3,4-oxadiazole-2-yl)pyridine-2-yl)methyl)-6-(1-ethylpiperidine-4-yl)-4,4-dimethylisoquinoline-1,3(2H,4H)-dione]",> 10000,56
"Cc1ccc(-c2ccc3c(c2)C(=O)N(Cc2ccc(-c4nnc(C(F)F)o4)cn2)C(=O)C3(C)C)o1 [Compound 114, 2-((5-(5-(difluoromethyl)-1,3,4-oxadiazole-2-yl)pyridine-2-yl)methyl)-4,4-dimethyl-7-(5-methylfuran-2-yl)isoquinoline-1,3(2H,4H)-dione]",> 10000,77
"Cn1c(=O)n(Cc2ccc(-c3nnc(C(F)F)o3)cn2)c(=O)c2cc(-c3ccncc3)ccc21 [Compound 92, 3-((5-(5-(difluoromethyl)-1,3,4-oxadiazole-2-yl)pyridine-2-yl)methyl)-1-methyl-6-(pyridine-4-yl)quinazoline-2,4(1H,3H)-dione]",> 10000,35
"CC1(C)C(=O)N(Cc2ccc(-c3nnc(C(F)F)o3)cn2)C(=O)c2cc(-c3cccc(F)c3)ccc21 [Compound 108, 2-((5-(5-(difluoromethyl)-1,3,4-oxadiazole-2-yl)pyridine-2-yl)methyl)-7-(3-fluorophenyl)-4,4-dimethylisoquinoline-1,3(2H,4H)-dione]",> 10000,211

# From patent US12440484B2, “1,3,4-oxadiazole homophthalimide derivative compounds as histone deacetylase 6 inhibitor, and the pharmaceutical composition comprising the same” (Chong Kun Dang Pharmaceutical Corp., priority 2019, dated 2025)
